Data set [1] in a line: Solubilization of ketoconazole in concentrated POM polymer solution (visual check). The data set is classed as physicochemical. The following applies: for solubility: pH 7, aqueous with cosolvent or surfactant or cyclodextrin, thermodynamic from solid.
Data set [2] is described as follows: physchem. The following applies: thermodynamic from solid.
How the values of data set [3] were obtained: The preparation is centrifuged at 9,000 rpm for 30 minutes.
This is another data set of the same source.
A short description of data set [4]: physchem. The following applies: pH 7, aqueous buffer, thermodynamic from solid, solubility in the absence of polymer.
Method: 40 to 50 mg of carvedilol base are introduced into a 15 ml Falcon tube. 5 ml of aqueous solution of concentrated POM polymer at 20 mg/ml and at pH 7.0 are added. […] After this stage, the preparation is centrifuged at 9,000 rpm for 30 minutes in order to eliminate any undissolved crystals. […] It is diluted 1,000 times with a phosphate buffer at pH 7.0. The concentration of solubilized carvedilol is determined by UV spectrometry (at a wavelength of 240 nm and using a cell with a 1 cm optical path).
For data set [5] the following is noted: pH 7.0, ambient temperature.
The nature of data set [6]: physchem. The following applies: concentrated aqueous POM polymer solution, pH 7, aqueous with cosolvent or surfactant or cyclodextrin, thermodynamic from solid, Total concentration of solubilized active ingredient, ambient temperature.
The conditions of data set [7]: background statement; cited from earlier work.
Data set [8] can be described thus: physchem. To be noted: for solubility at […]: 37 °C, pH 7, aqueous buffer, thermodynamic from solid. Here is the method:
0.49 mg of paclitaxel (Bioxel) is introduced into a 2 liter volumetric flask. The flask is topped up to the fill line with a 0.05 M phosphate buffer at pH 7.0. The preparation is stirred using a magnetic bar, at 37° C.
The preparation is then placed in an ultrasonic bath for 60 min at ambient temperature.

Data set [9] can be described thus: Solubilization of paclitaxel in concentrated aqueous POM polymer solution (visual check). The data set is classed as physicochemical. The following applies: for solubility: concentrated aqueous POM polymer solution. Here is the method: 21.21 mg of paclitaxel (Bioxel) are introduced into a pill-box.
39.68 mg of paclitaxel (Bioxel) are introduced into a pill-box.
35.05 mg of paclitaxel (Bioxel) are introduced into a pill-box.

Data set [10] can be described thus: Solubilization of paclitaxel in aqueous POM polymer solution at 20 mg/ml (visual check). The data set is classed as physicochemical. The following applies: for Solubilized active ingredient in μmol per g of polymer / Total concentration of active ingredient solibilized for 20 g/l of polymer: 20 g/l, pH 7.0, ambient temperature. As for the experimental part:
4.99 mg of paclitaxel (Bioxel) are introduced into a pill-box.
10.33 mg of paclitaxel (Bioxel) are introduced into a pill-box.
7 mg of paclitaxel (Bioxel) are introduced into a pill-box.

The mark [11] stands for this setting: sodium polyglutamate DP=100, 10% VE, 52.8 mg/ml, pH 7.0, ambient temperature.
[12] abbreviates: sodium polyglutamate DP=100, 15% VE, 84.6 mg/ml, pH 7.0, ambient temperature.
Where [13] appears, read: sodium polyglutamate DP=100, 20% VE, 156 mg/ml, pH 7.0, ambient temperature.
[14] abbreviates: sodium polyglutamate DP=100, 30% VE, 53.5 mg/ml, pH 7.0, ambient temperature.
[15] abbreviates: sodium polyglutamate DP=100, 10% VE, 52.8 mg/ml.
Where [16] appears, read: sodium polyglutamate DP=100, 15% VE, 84.6 mg/ml.
[17] abbreviates: sodium polyglutamate DP=100, 20% VE, 156 mg/ml.
The mark [18] stands for this setting: sodium polyglutamate DP=100, 5% VE.
Setting [19] is: sodium polyglutamate DP=100, 10% VE.
Setting [20] is: sodium polyglutamate DP=100, 15% VE.
[21] abbreviates: sodium polyglutamate DP=100, 20% VE.

In brackets after ≈: the same amount, converted by molar mass. Several values for one entry are separate records, joined by “and”; a condition that tells them apart may be missing. Equal values may be shown once. Read-outs that look alike come from different tables or passages of the source. Where only a bound is given, the exact number is not on record here.

On to `CC(=O)N1CCN(c2ccc(OCC3COC(Cn4ccnc4)(c4ccc(Cl)cc4Cl)O3)cc2)CC1` (centres unmarked) [ketoconazole], for which the solubility was > 30 mM in [1] (concentrated aqueous POM polymer solution, concentrated polymers DP=100 containing between 15% and 20% vitamin E, read-out: concentrations of solubilized active ingredient); 31.1 mM (≈ 16500 µg/mL) in [1] (concentrated aqueous POM polymer solution, sodium polyglutamate DP=100, 15% VE, 84.6 mg/ml, pH 7.0, ambient temperature, read-out: Total concentration of solubilized active ingredient); 16 mM (≈ 8500 µg/mL) in data set [1] (sodium polyglutamate DP=100, 10% VE, 52.8 mg/ml, pH 7.0, ambient temperature, read-out: Total concentration of solubilized active ingredient); 53.5 mM (≈ 28400 µg/mL) in data set [1] (sodium polyglutamate DP=100, 20% VE, 156 mg/ml, pH 7.0, ambient temperature, read-out: Total concentration of solubilized active ingredient); 14.1 mM (≈ 7490 µg/mL) in data set [1] (sodium polyglutamate DP=100, 30% VE, 53.5 mg/ml, pH 7.0, ambient temperature, read-out: Total concentration of solubilized active ingredient); 0.565 mM (≈ 300 µg/mL) in “physchem [2]” (aqueous POM polymer solution, pH 7, aqueous with cosolvent or surfactant or cyclodextrin, Total concentration of solubilized active ingredient for 20 g/l of polymer, sodium polyglutamate DP=100, 2% VE, 20 g/l, pH 7.0, ambient temperature). Moreover, the solubility is 2.54 mM (≈ 1350 µg/mL) in the data set “physchem [2]” (aqueous POM polymer solution, pH 7, aqueous with cosolvent or surfactant or cyclodextrin, Total concentration of solubilized active ingredient for 20 g/l of polymer, sodium polyglutamate DP=100, 5% VE, 20 g/l, pH 7.0, ambient temperature); 7.16 mM (≈ 3810 µg/mL) in “physchem [2]” (aqueous POM polymer solution, pH 7, aqueous with cosolvent or surfactant or cyclodextrin, Total concentration of solubilized active ingredient for 20 g/l of polymer, sodium polyglutamate DP=100, 10% VE, 20 g/l, pH 7.0, ambient temperature); 7.16 mM (≈ 3810 µg/mL) in “physchem [2]” (aqueous POM polymer solution, pH 7, aqueous with cosolvent or surfactant or cyclodextrin, Total concentration of solubilized active ingredient for 20 g/l of polymer, sodium polyglutamate DP=100, 15% VE, 20 g/l, pH 7.0, ambient temperature); 6.97 mM (≈ 3700 µg/mL) in “physchem [2]” (aqueous POM polymer solution, pH 7, aqueous with cosolvent or surfactant or cyclodextrin, Total concentration of solubilized active ingredient for 20 g/l of polymer, sodium polyglutamate DP=100, 20% VE, 20 g/l, pH 7.0, ambient temperature); ~0.02 mM (≈ 10.6 µg/mL) in the data set “physchem [2]” (aqueous medium without polymer, pH 7, aqueous buffer, solubility in the absence of polymer, pH 7.0, absence of polymer). The “Solubilized active ingredient in μmol per g of polymer” value in [1] (setting [11]) is listed as 303 μmol per g of polymer; the “Solubilized active ingredient in μmol per g of polymer” value in data set [1] (setting [12]) is given as 367 μmol per g of polymer; the “Solubilized active ingredient in μmol per g of polymer” value in data set [1] (setting [13]) was 343 μmol per g of polymer; the “Solubilized active ingredient in μmol per g of polymer” value in data set [1] (setting [14]) is listed as 264 μmol per g of polymer; the “Solubilized active ingredient in μmol per g of polymer” value (sodium polyglutamate DP=100, 2% VE, 20 g/l, pH 7.0, ambient temperature) is on record as 28 μmol per g of polymer; the “Solubilized active ingredient in μmol per g of polymer” value (sodium polyglutamate DP=100, 5% VE, 20 g/l, pH 7.0, ambient temperature) is listed as 127 μmol per g of polymer. For the same compound, the “Solubilized active ingredient in μmol per g of polymer” value is, setting by setting: (sodium polyglutamate DP=100, 10% VE, 20 g/l, pH 7.0, ambient temperature) 358 μmol per g of polymer; (sodium polyglutamate DP=100, 15% VE, 20 g/l, pH 7.0, ambient temperature) 358 μmol per g of polymer; (sodium polyglutamate DP=100, 20% VE, 20 g/l, pH 7.0, ambient temperature) 348 μmol per g of polymer. Besides, in [3], the “factor of increase of solubility” value was “approximately 200”.
`COc1ccccc1OCCNCC(O)COc1cccc2[nH]c3ccccc3c12` (centres unmarked) [carvedilol base, carvedilol] yielded a solubility at 90 min in “physchem [4]” of 120 µM (≈ 48.8 µg/mL). The “Solubilized active ingredient in μmol per g of polymer” value in data set [5] (setting [15]) is 638 μmol per g of polymer, the “Solubilized active ingredient in μmol per g of polymer” value in [5] (setting [16]) is recorded as 474 μmol per g of polymer, the “Solubilized active ingredient in μmol per g of polymer” value in data set [5] (setting [17]) is on record as 543 μmol per g of polymer and the “Solubilized active ingredient in μmol per g of polymer” value (pH 7) is given as 28 μmol per g of polymer. The “Total concentration of solubilized active ingredient for 20 g/l of polymer” value (pH 7) stood at 0.000565 mol/L. The solubility in “physchem [6]” (setting [15]) is 33.7 mM (≈ 13700 µg/mL); in the data set “physchem [6]” (setting [16]), 40.1 mM (≈ 16300 µg/mL); in “physchem [6]” (setting [17]) it was 84.6 mM (≈ 34400 µg/mL).
As for `CC(=O)O[C@H]1C(=O)[C@@]2(C)[C@H]([C@H](OC(=O)c3ccccc3)[C@]3(O)C[C@H](OC(=O)[C@H](O)[C@@H](NC(=O)c4ccccc4)c4ccccc4)C(C)=C1C3(C)C)[C@]1(OC(C)=O)CO[C@@H]1C[C@@H]2O` [paclitaxel], the aqueous solubility entry in data set [7] is on record as “less than 1 μg/ml”. In addition, in the data set “physchem [8]” (0.49 mg paclitaxel in 2 liter 0.05 M phosphate buffer pH 7.0, after stirring, ultrasonic bath 60 min at ambient temperature), the “appearance after ultrasonic treatment” value is on record as “A few grains of powder are still undissolved”. Further, the “appearance after magnetic stirring” value in “physchem [8]” (0.49 mg paclitaxel in 2 liter 0.05 M phosphate buffer pH 7.0, magnetic stirring […] at 37° C.) was “a few grains of undissolved powder remain”. Also, the solubility at […] in the data set “physchem [8]” (solubility in an aqueous buffer) was < 0.25 µg/mL and < 0.3 µM; in “physchem [8]” (solubility of the active ingredient measured without polymer) it was 0.3 µM (≈ 0.256 µg/mL); in data set [10] (aqueous polyglutamate (POM) polymer solution, pH 7, aqueous with cosolvent or surfactant or cyclodextrin, thermodynamic from solid, 20 mg/ml polyglutamate DP=100, 20% VE), ~800 µg/mL (≈ 937 µM). Further, the “μmol of paclitaxel per gram of POM polymer” value in data set [9] (90 mg/ml polyglutamate 20% VE) is on record as 49 μmol per gram of POM polymer; in data set [10] (20 mg/ml polyglutamate DP=100, 20% VE) it was 47 μmol per gram of POM polymer. The same compound registered a solubility at 5 h in data set [9] (aqueous polyglutamate (POM) polymer solution, pH 7, aqueous with cosolvent or surfactant or cyclodextrin, thermodynamic from solid, 90 mg/ml polyglutamate 20% VE) of 3500 to 4000 µg/mL (≈ 4100 to 4680 µM). The solubility in [9] (pH 7, aqueous with cosolvent or surfactant or cyclodextrin, thermodynamic from solid, concentrated polymers DP=100 containing between 15% and 20% vitamin E, read-out: concentrations of solubilized active ingredient) was > 3 mM; in [9] (pH 7, aqueous with cosolvent or surfactant or cyclodextrin, thermodynamic from solid, sodium polyglutamate DP=100, 10% VE, 52.8 mg/ml, pH 7.0, ambient temperature, read-out: Total concentration of solubilized active ingredient), 1.5 mM (≈ 1280 µg/mL); in [9] (pH 7, aqueous with cosolvent or surfactant or cyclodextrin, thermodynamic from solid, sodium polyglutamate DP=100, 15% VE, 84.6 mg/ml, pH 7.0, ambient temperature, read-out: Total concentration of solubilized active ingredient) it was 3.5 mM (≈ 2990 µg/mL); in [9] (pH 7, aqueous with cosolvent or surfactant or cyclodextrin, thermodynamic from solid, sodium polyglutamate DP=100, 20% VE, 156 mg/ml, pH 7.0, ambient temperature, read-out: Total concentration of solubilized active ingredient), 6.4 mM (≈ 5470 µg/mL); in [9] (pH 7, aqueous with cosolvent or surfactant or cyclodextrin, thermodynamic from solid, sodium polyglutamate DP=100, 30% VE, 53.5 mg/ml, pH 7.0, ambient temperature, read-out: Total concentration of solubilized active ingredient) it was < 1.4 mM. Besides, the “Solubilized active ingredient in μmol per g of polymer” value in data set [9] (setting [11]) is reported as 29 μmol per g of polymer; in data set [9] (setting [12]), 42 μmol per g of polymer; in data set [9] (setting [13]), 41 μmol per g of polymer; in [9] (setting [14]), <26 μmol per g of polymer; in data set [10] (setting [18]) it was 12 μmol per g of polymer; in data set [10] (setting [19]), 29 μmol per g of polymer. For the same compound, the “Solubilized active ingredient in μmol per g of polymer” value in data set [10] (setting [20]) and in data set [10] (setting [21]) was 47 μmol per g of polymer throughout. In addition, the “Total concentration of active ingredient solibilized for 20 g/l of polymer” value amounted to 0.00023 mol/L in data set [10] (setting [18]), 0.00059 mol/L in data set [10] (setting [19]), 0.00094 mol/L in data set [10] (setting [20]) and 0.00094 mol/L in data set [10] (setting [21]).
